Consider 2 molecules from article PMC9049938 (2020).

What all share (test): BLI
(In general: Biolayer interferometry detects binding as a change in optical thickness at a sensor tip.)

The subject of assay [1] is N59a (DNA, aptamer) CCACCAGGCCAAACACGACCCCAAACA
The conditions noted are these: 150 mM NaCl, 2 mM MgCl2, 50 mM Tris-HCl pH 7.5.

The test system of assay [2] is N41 (DNA, aptamer) GAGGCAGCACTTCACACGATCCCCCCCACACTCTTCCAACCCCCTCTCTGCGTAATGACTGTAGTGATG
As to conditions: 150 mM NaCl, 2 mM MgCl2; 50 mM Tris-HCl pH 7.5.

Assay [3] deals with N50 (DNA, aptamer) GAGGCAGCACTTCACACGATCGTCCCTGCCCCTGCCTCCTTTCTATGCTGCGTAATGACTGTAGTGATG
As to conditions: 150 mM NaCl, 2 mM MgCl2; 50 mM Tris-HCl pH 7.5.

The test system of assay [4] is N16 (DNA, aptamer) GAGGCAGCACTTCACACGATATTTGGGGATCAGCCAGGTCAGTGCCACTGCGTAATGACTGTAGTGATG
The conditions noted are these: 150 mM NaCl, 2 mM MgCl2; 50 mM Tris-HCl pH 7.5.

Assay [5] deals with N11 (DNA, aptamer) GAGGCAGCACTTCACACGATCGGACCCAAACTTTACCTTACCCCCATCTGCGTAATGACTGTAGTGATG
As to conditions: 150 mM NaCl, 2 mM MgCl2; 50 mM Tris-HCl pH 7.5.

In assay [6] the test system is N59 (DNA, aptamer) GAGGCAGCACTTCACACGATCCACCAGGCCAAACACGACCCCAAACACTGCGTAATGACTGTAGTGATG
The conditions noted are these: 150 mM NaCl, 2 mM MgCl2; 50 mM Tris-HCl pH 7.5.

Take `C=C1[C@@H](O)[C@@H]2O[C@]3(CC[C@H](/C=C/[C@@H](C)[C@@H]4CC(C)=C[C@@]5(O[C@H](C[C@@](C)(O)C(=O)O)CC[C@H]5O)O4)O3)CC[C@H]2O[C@@H]1[C@@H](O)C[C@H](C)[C@H]1O[C@@]2(CCCCO2)CC[C@H]1C`: the KD (as a rule, the constant that tells how readily two partners part at equilibrium) in assay [1] turned out to be 30.5 µM.
On to `C=C1[C@@H](O)[C@@H]2O[C@]3(CC[C@H](/C=C/[C@@H](C)[C@@H]4CC(C)=C[C@@]5(O[C@H](C[C@@](C)(O)C(=O)O)CC[C@H]5O)O4)O3)CC[C@H]2O[C@@H]1[C@@H](O)C[C@H](C)[C@H]1O[C@@]2(CC[C@H]1C)OCCC[C@H]2C`, for which the dissociation constant (KD) came to 1890 µM in assay [2]; 2.57 µM in assay [3]; 0.064 µM in assay [1] (Table S3 prints 64 nM); 0.729 µM in assay [4]; 0.498 µM in assay [5]; 0.17 µM in assay [6].
